Measured values published in ChEMBL document CHEMBL3507680, “University of Dundee, Gates Library screen for HepG2 cell viability”.

Experiment: Human HepG2 cell viability assay in 384 well format
Type: toxicity, cell-based
Parameters: dose 125 nL, time 70.5 hour; cytotoxicity at 70.5 h: concentration not given beside the values
Conditions: HepG2 cells, read-out: Inhibition

| SMILES | cytotoxicity at 70.5 h [%] |
| --- | --- |
| COc1cc(F)ccc1C(C(=O)O)N1CCN(C2CCCCC2)CC1 (stereo not drawn) | -4.9 |
| N#CCCN(CC1CC1)Cn1cc(Cl)cn1 | 34.6 |
| Cc1cnn(C2CCCN(C(=O)c3cc(Cl)c4c(c3)OCO4)C2)c1 (stereo not drawn) | 7.73 |
| Cc1c(O)oc(-c2ccc(Br)cc2)nc1=O | 53.6 |
| O=C1CC(N(C(=O)c2ccccc2Br)C2CC2)C(=O)N1 (stereo not drawn) | 2.23 |
| O=C(NC1CCNC1)C1(N2CCCCC2)Cc2ccccc2C1 (stereo not drawn) | 1.09 |
| Cc1ccc(N2C[C@@H]3OCCN(CC4CC4)[C@@H]3C2)nn1 | -7.81 |
| CCN1CCCc2cc(CN3CCc4nc(C)[nH]c(=O)c4C3)ccc21 | -0.248 |
| CCN(CC)CCn1cnc(-c2ccccc2)c1-c1cnc(C)s1 | -7.41 |
| Cc1ncsc1CN1C[C@@H]2COC[C@]2(C(=O)NCc2cccnc2)C1 | -14.8 |
| CN(Cc1ccc2c(c1)OCCO2)C(=O)Cn1ccccc1=O | -5.02 |
| COc1ccc(Cl)cc1-c1cc(NC(=O)C2CNC(=O)N2)[nH]n1 (stereo not drawn) | 1.69 |
| O=C(O)c1cncc(Cc2ccc(F)cc2)c1 | -7.6 |
| O=C(NCc1nnc2n1CCCC2)N(Cc1ccccc1F)C1CC1 | -11.1 |
| Cc1ccsc1CN1CCc2c(nc(N3CCCCC3C)[nH]c2=O)C1 (stereo not drawn) | -6.71 |
| CCOCC1CN(c2ccncn2)Cc2cnn(CC)c21 (stereo not drawn) | -8.6 |
| CCN(C(=O)CCCOc1ccccc1F)c1ccncc1 | 1.58 |
| Cc1oc(-c2nc(C#N)c(NCC(C)C)o2)cc1S(=O)(=O)N1CCCC1 | -13.1 |
| Cc1cc(=O)n2ncnc2n1CC(O)c1ccccc1Cl (stereo not drawn) | -3.15 |
| Cc1n[nH]c(C2CN(C(=O)CCOCC(F)(F)F)CCO2)n1 (stereo not drawn) | -10.1 |
| CNC(=O)c1cccc(NC(=O)NCc2ccc(SC)cc2)c1C | -7.01 |
| Cc1nc(C)n(CCNC2CCN(c3ncnc4c(C)csc34)CC2)n1 | -5.4 |
| CC(C)OCCC1CCCCN1S(N)(=O)=O (stereo not drawn) | 10.9 |

| SMILES | cytotoxicity at 70.5 h [%] |
| --- | --- |
| CC(=O)N1CCC2(CC1)COCCN2CCN(C)C | -10.7 |
| CCc1nc(CCNC(=O)Nc2ccc(C(=O)NC)cc2)cs1 | -1.4 |
| CCOc1ccc(C(=O)N2CCN(c3nccn3C)CC2)cc1 | -0.809 |
| O=C(NCCc1ccccn1)C1(n2cnnn2)CCCCC1 | 14.5 |
| CCCN(C)c1ccc(C(=O)Nc2c(C)nn(C(C)C)c2C)cc1 | -3.3 |
| Cc1ccc(C(=O)N2CCc3ncnc(C)c3CC2)cc1F | 6.96 |
| Cc1nc(-c2ccco2)ccc1C(=O)N1CCCC1Cn1cccn1 (stereo not drawn) | 7.82 |
| c1ccc(CO[C@@H]2CO[C@@]3(CCN(Cc4ccccn4)C3)C2)nc1 | -16 |
| O=C([C@H]1COC[C@H]2CN(CC3CCCC3)C[C@H]21)N1CCOCC1 | 2.13 |
| O=C(NCc1cn2c(n1)CN(Cc1cccc(F)c1)CC2)C1CCC1 | -3.08 |
| COCCC1(CNC(=O)NCC2CCCN(C)C2)CCC1 (stereo not drawn) | -12 |
| CC(C)n1[nH]c(=O)c2c1NC(=O)CC2c1cccc(Br)c1 (stereo not drawn) | -12.9 |
| CC(=O)Nc1nc(C(=O)NC(C)c2ccc(C#N)cc2)cs1 (stereo not drawn) | -7.27 |
| Cc1ccc(-c2nnc(C(C)N3CCn4c(C)nnc4C3)o2)cc1 (stereo not drawn) | -1.43 |
| CC(C)(C)c1cc(NC(=O)NCCc2nnc3n2CCC3)c(C#N)s1 | 8.88 |
| NC(=O)NCC(=O)N1CCC(c2cc(-c3ccccc3Cl)n[nH]2)CC1 | -4.95 |
| Cc1cccn2cc(CC(=O)N3CCCC(n4cncn4)C3)nc12 (stereo not drawn) | -3.85 |
| Cc1nc(CNCc2c(C)nn(C)c2N2CCOCC2)cs1 | -15.5 |
| Cc1nnc(CCNC(=O)Nc2ccc(S(C)(=O)=O)cc2)[nH]1 | 35.6 |
| COC(=O)c1ccc(N2CCN(C(=O)c3ccc(O)nc3)C(C)C2)cc1 (stereo not drawn) | -7.53 |
| Cn1nc(CNC(=O)NCc2ccc(Cl)cc2)c2c1CCOC2 | -0.247 |
| c1cnnc(N2CCCC(NCc3nnc(-c4ccco4)o3)C2)c1 (stereo not drawn) | 3.16 |
| N#CC1(NC(=O)COC(=O)Cn2cccn2)CCCC1 | -7.86 |

| SMILES | cytotoxicity at 70.5 h [%] |
| --- | --- |
| CN(C)CCn1c2c(ccc1=O)CC(NC(=O)c1cnccn1)CC2 (stereo not drawn) | -10.4 |
| CCc1c(C)nc2n(c1=O)CC(C(=O)Nc1nc3c(s1)CCCC3)CS2 (stereo not drawn) | 12.5 |
| Cn1cnnc1Sc1ccc(NC(=O)C2CC2)cc1Cl | -9.39 |
| CCc1nnc2n1CCN(CC(=O)Nc1sccc1C#N)C2 | -9.93 |
| CNC(=O)CCN1CCN(C(C)c2ccc(Cl)cc2)CC1 (stereo not drawn) | -6.21 |
| CN(Cc1ccccc1F)C(=O)Cn1cc(NC(=O)C(C)(C)C)cn1 | 10.7 |
| COc1ccc(COCC(O)CNC(=O)c2cc(C)oc2C)cc1 (stereo not drawn) | 1.97 |
| COc1ccc(NS(=O)(=O)c2cnc(NC(C)=O)s2)cc1 | -8.08 |
| CCn1nc(C)c(S(=O)(=O)Nc2ccccc2C(=O)OC)c1C | 11.2 |
| CC1CN(Cc2cccc(CN)c2)CCO1 (stereo not drawn) | -9.2 |
| CCOC(=O)CC(C)NC(=O)c1cn(Cc2ccccc2F)nn1 (stereo not drawn) | -1.02 |
| CC(c1ccco1)n1cc(-c2cc(CN3CCCC3)cs2)nn1 (stereo not drawn) | -0.331 |
| CCNC(=O)C1CCN(Cc2csc(-c3ccc(C)o3)n2)CC1 | 0.934 |
| COc1ccccc1-c1ncc(CN2CCC3(CCN(C)C3)CC2)cn1 | -8.29 |
| CC(C)C(Nc1nc(C(F)(F)F)nc2ccccc12)C(=O)O (stereo not drawn) | -1.94 |
| COCCn1ccc2cc(NC(=O)N(C)C(C)CSC)ccc21 (stereo not drawn) | 1.74 |
| Fc1ccccc1CN1C[C@@H](OCc2ccncc2)[C@H]2OCCC[C@H]21 | -12.8 |
| CCN(CC)CCn1c(NC(=O)c2scnc2C)nc2ccccc21 | 5.56 |
| Cc1csc(C2(NC(=O)CCc3ccncc3)CCCC2)n1 | -7.21 |
| Cc1cc(CN(C)C(=O)C(c2ccccc2C)N(C)C)on1 (stereo not drawn) | -6.35 |
| CCc1nnc2n1CCN(C(=O)CN(CC)CC)C2 | 44.6 |
| FC(F)(F)c1nc(C2CCNCC2)no1 | -2.97 |
| COc1cccc2[nH]cc(CCNC(=O)N3CCCC3CO)c12 (stereo not drawn) | 2.83 |

| SMILES | cytotoxicity at 70.5 h [%] |
| --- | --- |
| O=S(=O)(c1cccc(F)c1)N1C[C@@H]2CC[C@H](C1)N(Cc1ccccc1)C2 | -12.7 |
| COCC1CN(S(=O)(=O)N(C)C)Cc2cnn(CC3CCCC3)c21 (stereo not drawn) | -5.7 |
| CC1(C)Cc2nc(C(C)(C)C)ncc2C(NC(=O)CN)C1 (stereo not drawn) | -10.1 |
| CS(=O)(=O)NCCCNc1ccc(C(F)(F)F)cc1C#N | -3.55 |
| Cc1ncc2c(n1)CN(CC(=O)N1CCc3sccc3C1)CC2 | -1.15 |
| O=C(c1ccsc1)N1CCN2C[C@H](OCc3cccnc3)C[C@H]2C1 | -13.4 |
| O=C(Nc1ccccc1)[C@H]1C[C@@H]2CN(Cc3cccnc3)C[C@H]1O2 | -5.98 |
| CC(C)c1cc(C2CCCN2C(=O)c2cn3ccsc3n2)no1 (stereo not drawn) | -5.17 |
| CN(c1nccc(-c2cnc3sc(Cl)cn3c2=O)n1)C1CCCCC1 | -3.38 |
| CC(c1nncn1C)n1cc(-c2cc(CN3CCCC3)cs2)nn1 (stereo not drawn) | 15.8 |
| Cc1c(NC(C)C(C)C)cccc1C(=O)NCc1nnc(C)n1C (stereo not drawn) | 8.29 |
| COCCCN1CC2(CCCCN2C(=O)c2ccsc2)CC1=O (stereo not drawn) | 8.24 |
| Cc1ccc(Nc2nccc(C3CN(CC(N)=O)C3)n2)nc1 | -1.76 |
| CCCN(C(=O)c1ccc(-n2ccnn2)cc1)c1cccnc1 | -3.08 |
| CCn1cc(CN2C[C@@H]3CCCN3C[C@H]2CCSC)cn1 | -7.68 |
| Cc1c(C(=O)N2CCOCC2)nnn1-c1ccc2ncccc2c1 | -6.04 |
| NC(=O)c1cc(NC(=O)NCCc2cc(F)cc(F)c2)ccc1F | 10.2 |
| O=C(N1CCOCC1)N1CCC2(CC1)CN(c1ccccn1)CCO2 | -6.33 |
| CC(C)COc1cncc(N(C)C2CCN(c3ncccn3)CC2)n1 | -12 |
| Cc1cc(C)n(C2CN(Cc3ccc(C(=O)N4CCCC4)cc3)C2)n1 | -1.2 |
| COCCN(C)CCN1CC2(CCN(C(=O)C3CCOC3)CC2)OC1=O (stereo not drawn) | 17.4 |
| CC(C)NC(=O)N1CCN(CC2CC2)c2ncccc2C1 | -15.2 |
| Cc1nccc(-c2ccccc2)c1C(=O)N1CCC2(CCCO2)CC1 | 2.47 |

| SMILES | cytotoxicity at 70.5 h [%] |
| --- | --- |
| Cc1cc2nc(CN(C)c3ccccc3)cc(=O)n2o1 | 3.13 |
| CCc1cccc(NC(=O)CCN2CC=C(c3cnn(C)c3)CC2)c1 | -5.53 |
| CCc1nc(C2CCCN2C(=O)c2cnc3n[nH]c(C)c3c2)no1 (stereo not drawn) | -12.5 |
| CN(C)CCCn1ccnc1C1CCN(C(=O)Cc2cccnc2)CC1 | 9.19 |
| CCCS(=O)(=O)NC(=O)c1sc(C2CCCC2)nc1C | -3.78 |
| Cn1nnc2c1CCN(C(=O)C1CCC1)C2COCCN1CCCC1 (stereo not drawn) | -2.83 |
| CCC(=O)NCC(=O)NCC1(O)CCC(C(C)(C)C)CC1 (stereo not drawn) | -7.33 |
| CCN(C)C[C@@H]1CN(S(=O)(=O)c2ccc(OC)cc2)C[C@@H]1CO | 10.4 |
| CCn1ncnc1C(C)Nc1cc(C2CCNCC2)nc(C)n1 (stereo not drawn) | 26.8 |
| O=c1[nH]c(NCc2cccc(OC(F)F)c2)nc2c1CCNC2 | -23.8 |
| O=C(NC[C@]12COC[C@H]1CN(Cc1nccs1)C2)N1CCCC1 | -13.4 |
| CC(=O)N[C@@H]1Cc2ccccc2[C@H]1Nc1nnc(C2CC2)o1 | -7.5 |
| CC(C)(C)c1nnc2n1C(C(=O)N1CCOCC1)CC2 (stereo not drawn) | -14.7 |
| CC(C)COCCCNC(=O)c1cccnc1N1CCOCC1 | 4.2 |
| O=C(N1CCOCC1)[C@@]12CCO[C@@H]1CCN(C1CCOCC1)C2 | -4.69 |
| O=C(c1cc(-c2cccs2)cs1)N1CCSCC1 | -5.68 |
| c1cnc(N2CCC(C3CCN(CCCn4cccn4)C3)CC2)nc1 (stereo not drawn) | 0.616 |
| c1ccc2c(c1)CCN(c1nc(N3CCOCC3)c3nn[nH]c3n1)C2 | -0.0594 |
| CC1=Nc2c(c(O)nn2C(C)C)C(c2cccnc2)S1 (stereo not drawn) | 26.1 |
| Cc1ccccc1CN(CCN(C)C)Cc1ccc(O)c(C(=O)O)c1 | -8.19 |
| CC(=O)Nc1nc(C2CCN(CC(N)=O)CC2)cs1 | -3.74 |
